Here are results for four compounds from patent US20040106545A1, “Compounds and methods for modulating cell adhesion” (priority 1996, published 2004).

Data set [1] concerns chick embryonic chorioallantoic membranes. Briefly: Chick chorioallantoic membrane angiogenesis assay. It counts as in vivo. The note with it: for Percent Inhibition of Angiogenesis: 24 hours; for inhibition of angiogenesis (in words): 3, 17 and 33 μg/mesh. Here is the method:
Another cell adhesion assay evaluates the ability of a modulating agent to block angiogenesis (the growth of blood vessels from pre-existing blood vessels). This ability may be assayed using the chick chorioallantoic membrane assay described by Iruela-Arispe et al., Molecular Biology of the Cell 6:327-343, 1995. Briefly, a modulating agent may be embedded in a mesh composed of vitrogen at one or more concentrations (e.g., ranging from about 1 to 100 μg/mesh). The mesh(es) may then be applied to chick chorioallantoic membranes. After 24 hours, the effect of the peptide may be determined using computer assisted morphometric analysis. A modulating agent should inhibit angiogenesis by at least 25% at a concentration of 33 μg/mesh.
The chick chorioallantoic membrane assay was used to assess the effects of cyclic peptides on angiogenesis (Iruela-Arispe et al., Molecular Biology of the Cell 6:327-343, 1995). Cyclic peptides were embedded in a mesh composed of vitrogen at concentrations of 3, 17, and 33 μg/mesh. The meshes were then applied to 12-day-old chick embryonic chorioallantoic membranes. After 24 hours, the effects of the peptides on angiogenesis were assessed by computer assisted morphometric analysis.

For another data set, the system named is PC-3. Briefly: Cytotoxicity, MTT assay, PC-3. It counts as cell-based, human. An outline of the steps: (§1)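 Human primary endothelial cells, fibroblast lines (IAFp2, WI-38) and cancer lines (MDA-MB231, PC-3) receive the CHAVC peptide or the CHGVC control at ≤100 μM. Viability is scored by MTT and DNA synthesis by ^3H-thymidine uptake.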
On the technique in general: Tetrazolium dyes change colour on reduction, which living cells bring about.

In data set [2] the test system is Bovine pulmonary artery endothelial cells. Put plainly: Disruption of bovine endothelial cell adhesion. Format: cell-based. The following applies: 500 μg/ml, 30 minutes. How it is done: For use within one such assay, bovine pulmonary artery endothelial cells may be harvested by sterile ablation and digestion in 0.1% collagenase (type II; Worthington Enzymes, Freehold, N.J.). Cells may be maintained in Dulbecco's minimum essential medium supplemented with 10% fetal calf serum and 1% antibiotic-antimycotic at 37° C. in 7% CO2 in air. Cultures may be passaged weekly in trypsin-EDTA and seeded onto tissue culture plastic at 20,000 cells/cm^2. Endothelial cultures may be used at 1 week in culture, which is approximately 3 days after culture confluency is established. The cells may be seeded onto coverslips and treated (e.g., for 30 minutes) with modulating agent or a control compound at, for example, 500 μg/ml and then fixed with 1% paraformaldehyde. As noted above, disruption of cell adhesion may be determined visually within 24 hours, by observing retraction of the cells from one another. This assay evaluates the effect of a modulating agent on N-cadherin mediated cell adhesion.
Bovine pulmonary artery endothelial cells were harvested by sterile ablation and digestion in 0.1% collagenase (type II; Worthington Enzymes, Freehold, N.J.). Cells were maintained in Dulbecco's minimum essential medium (Clonetics, San Diego, Calif.) supplemented with 10% fetal calf serum (Atlantic Biologicals, Nor cross, Ga.) and 1% antibiotic-antimycotic at 37° C. in 7% CO2 in air. Cultures were passaged weekly in trypsin-EDTA (Gibco, Grand Island, N.Y.) and seeded onto tissue culture plastic at 20,000 cells/cm^2 for all experiments. Endothelial cultures were used at 1 week in culture, which is approximately 3 days after culture confluency was established. The cells used in all protocols were between 4th passage and 10th passage. The cells were seeded onto coverslips and treated 30 minutes with N—Ac-CHAVC-NH2 (SEQ ID NO:10) or N—Ac-CHGVC-NH2 (SEQ ID NO:11) at 500 μg/ml and then fixed with 1% paraformaldehyde.

Another data set concerns MDA-MB231. Put plainly: Cytotoxicity, MTT assay, MDA-MB231. It counts as cell-based, human. Put shortly: as §1
The target of another data set is T1, N-cadherin (Gallus gallus, UniProt P10288).
T1 construct: expressed in transfected cells; host or cells: 3T3 fibroblasts (monolayer)
T1 sequence (P10288 165-912): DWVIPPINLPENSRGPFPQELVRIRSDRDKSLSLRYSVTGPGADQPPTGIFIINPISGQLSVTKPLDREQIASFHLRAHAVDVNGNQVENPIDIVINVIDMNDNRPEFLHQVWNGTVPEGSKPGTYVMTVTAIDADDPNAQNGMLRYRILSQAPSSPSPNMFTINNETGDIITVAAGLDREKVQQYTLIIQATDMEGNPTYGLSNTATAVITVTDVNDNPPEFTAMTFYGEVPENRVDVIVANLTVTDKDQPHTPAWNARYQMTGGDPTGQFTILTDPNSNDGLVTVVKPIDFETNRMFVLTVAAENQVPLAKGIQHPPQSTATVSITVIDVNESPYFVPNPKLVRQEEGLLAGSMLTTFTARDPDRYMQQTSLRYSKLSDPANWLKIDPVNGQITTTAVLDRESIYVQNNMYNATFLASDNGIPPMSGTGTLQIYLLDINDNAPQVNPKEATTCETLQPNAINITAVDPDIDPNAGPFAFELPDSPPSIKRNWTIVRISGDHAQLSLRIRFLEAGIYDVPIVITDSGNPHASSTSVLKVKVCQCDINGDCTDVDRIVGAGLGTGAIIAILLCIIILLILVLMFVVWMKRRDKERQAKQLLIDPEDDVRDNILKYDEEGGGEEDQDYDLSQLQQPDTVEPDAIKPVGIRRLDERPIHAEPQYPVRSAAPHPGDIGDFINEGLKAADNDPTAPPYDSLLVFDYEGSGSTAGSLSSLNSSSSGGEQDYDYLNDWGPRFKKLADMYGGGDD
Put plainly: Neurite outgrowth inhibition, rat neurons (Example 21). It counts as cell-based. The note with it: 250 μg/mL; for inhibition at 250 µg/mL: read-out: % Inhibition of neurite outgrowth.

[3] abbreviates: 3 μg/mesh, absence (−) of 0.01 mM VEGF.
Where [4] appears, read: 3 μg/mesh, presence (+) of 0.01 mM VEGF.
[5] abbreviates: 17 μg/mesh, absence (−) of 0.01 mM VEGF.
[6] abbreviates: 17 μg/mesh, presence (+) of 0.01 mM VEGF.
The mark [7] stands for this setting: 33 μg/mesh, absence (−) of 0.01 mM VEGF.
Where [8] appears, read: 33 μg/mesh, presence (+) of 0.01 mM VEGF.

Entries after “also recorded” stand apart in the source; their conditions may differ. Read-outs that look alike come from different tables or passages of the source. Positions of bridges follow the written chain, without caps; N, C: chain ends. Residues, ends and D or L forms follow the SMILES beside them.

In general, IC50 refers to the concentration needed to halve the response being measured. A higher IC50 goes with lower potency. As a reminder, the inhibition is the relative decrease from the control value, in per cent.

For `CC[C@H](C)[C@@H]1NC(=O)[C@H](CC(=O)O)NC(=O)[C@H](C(C)C)NC(=O)[C@H](C)NC(=O)[C@H](Cc2c[nH]cn2)NC(=O)[C@H](C)NC(=O)[C@@H](NC(C)=O)CSSC[C@@H](C(N)=O)NC1=O` (Ac-CAHAVDIC-NH2; disulfide 1-8), the “Percent Inhibition of Angiogenesis” value in data set [1] (setting [3]) was −1%^; in data set [1] (setting [4]), 21%; in data set [1] (setting [5]) it was 15%; in data set [1] (setting [6]), 37%; in data set [1] (setting [7]), 33%; in data set [1] (setting [8]), 49%. In addition, the “inhibition of angiogenesis (in words)” value in data set [1] is “inhibited angiogenesis significantly”. Besides, the half-maximal inhibitory concentration (IC50) in the data set with PC-3 and in the data set with MDA-MB231 was more than 100 µM in each case. The “effect on endothelial cell monolayer / morphology” value in data set [2] (listed as N—Ac-CAHAVDIC-NH2) is “neither of the cyclic peptides show activity; also recorded: had no effect on endothelial cell morphology”. The inhibition at 250 µg/mL on N-cadherin turned out to be 82%.

For `CC(=O)N[C@H]1CSSC[C@@H](C(N)=O)NC(=O)[C@H](CC(=O)O)NC(=O)[C@H](C(C)C)NC(=O)[C@H](C)NC(=O)[C@H](Cc2c[nH]cn2)NC(=O)[C@H](C)NC1=O` [N—Ac—CAHAVDC—NH2, N-Ac-Cys-Ala-His-Ala-Val-Asp-Cys-NH2] (Ac-CAHAVDC-NH2; disulfide 1-7), the “Percent Inhibition of Angiogenesis” value was determined as 21% in data set [1] (setting [3]); 59% in data set [1] (setting [4]); 27% in data set [1] (setting [5]); 72% in data set [1] (setting [6]); 31% in data set [1] (setting [7]); 79% in data set [1] (setting [8]). Moreover, in data set [1], the “inhibition of angiogenesis (in words)” value is given as “inhibited angiogenesis significantly”. The half-maximal inhibitory concentration (IC50) in the data set on PC-3 and with MDA-MB231 was more than 100 µM in each case. In data set [2], the “effect on endothelial cell monolayer / morphology” value is “endothelial cells retracted from one another; also recorded: had a slight effect”.

On to `CC(=O)N[C@H]1CSSC[C@@H](C(N)=O)NC(=O)[C@H](C(C)C)NC(=O)[C@H](C)NC(=O)[C@H](Cc2c[nH]cn2)NC1=O` [N—Ac—CHAVC—NH2, N-Ac-Cys-His-Ala-Val-Cys-NH2], for which the “Percent Inhibition of Angiogenesis” value in data set [1] (setting [3]) was 12%; in data set [1] (setting [4]) it was 46%; in data set [1] (setting [5]), 22%; in data set [1] (setting [6]) it was 51%; in data set [1] (setting [7]), 28%; in data set [1] (setting [8]), 51%. The 50% inhibitory concentration (IC50) in the data set on PC-3 (human) and with MDA-MB231 (human) was more than 100 µM in each case. In data set [2], the “effect on endothelial cell monolayer / morphology” value is given as “endothelial cells retracted from one another; also recorded: disrupted the endothelial cell monolayer”. On N-cadherin, the “inhibition of neurite outgrowth (in words)” value is on record as “significantly inhibited neurite outgrowth”. Further, on N-cadherin, the inhibition at 250 µg/mL is 65%.

As for `CC(=O)N[C@H]1CSSC[C@@H](C(N)=O)NC(=O)[C@H](C(C)C)NC(=O)CNC(=O)[C@H](Cc2c[nH]cn2)NC1=O` [N—Ac—CHGVC—NH2, reference compound], the 50% inhibitory concentration (IC50) with PC-3 and in the data set on MDA-MB231 was more than 100 µM in each case. Further, in data set [2], the “effect on endothelial cell monolayer / morphology” value was “had no affect on the cells”. The inhibition at 250 µg/mL at N-cadherin is 0%.
